Data from ChEMBL document CHEMBL4257490, “Development of a peptide-based bifunctional chelator conjugated to a cytotoxic drug for the treatment of melanotic melanoma” (Medchemcomm, 2018).
Activity calls are given as the source filed them. The rule behind the calls is not given here.

Experiments:
B16-F10 [1] = experiment: Induction of apoptosis in mouse B16F10 cells at IC50 after 72 hrs by annexin V-FITC/propidium iodide staining-based flow cytometric method relative to control; assay type: functional
B16-F10 [2] = experiment: Cytotoxicity against mouse B16F10 cells assessed as decrease in cell viability after 72 hrs by MTT assay; assay type: functional, cell-based; details: B16-F10, 72 h
B16-F10 [3] = experiment: Induction of apoptosis in mouse B16F10 cells assessed as necrotic cells at IC50 after 72 hrs by annexin V-FITC/propidium iodide staining-based flow cytometric method relative to control; assay type: functional
B16-F10 [4] = experiment: Antitumor activity against mouse B16F10 cells allografted in Balb/c mouse assessed as tumor growth inhibition at 25 mg/kg, iv administered thrice weekly for 21 days starting on day 10 post tumor implantation relative to control; assay type: functional; details: read-out: TGI
B16-F10 [5] = experiment: Induction of apoptosis in mouse B16F10 cells assessed as nuclear fragmentation at IC50 after 72 hrs by DAPI staining-based fluorescence microscopic method; assay type: functional, cell-based
Mus musculus = experiment: Toxicity in mouse B16F10 cells allografted Balb/c mouse assessed as effect on body weight at 25 mg/kg, iv administered thrice weekly for 21 days starting on day 10 post tumor implantation (reference value: 30.52 +/- 2.9 g); assay type: organism-based; details: in vivo, 504 h

Nc1ccn([C@@H]2O[C@H](CO)[C@@H](O)C2(F)F)c(=O)n1 [GEMCITABINE]
Activity (B16-F10 [1]): 26%
IC50 (B16-F10 [2]): 260 nM
Activity (B16-F10 [3]): 12 - 14%
inhibition in vivo at 25 mg/kg (B16-F10 [4]): 37%
Activity (B16-F10 [5]): Active
Activity (Mus musculus): 28.65 g
